# “And” between values parts separate entries of the source, which are not always exact repeats. Identical values can stand only once. Like-named read-outs stand apart in the source and are kept apart here.
# What was measured:
# [1] = biological target: β4GalTI; conditions: cited from earlier work
# [2] = test system: LLC cells; test: Experimental metastasis of pretreated LLC cells; assay type: in vivo, mice; conditions: cells treated 5 days, 3 weeks
# Method: (A) LLC cells were treated in culture for 4 days with peracetylated GlcNAcβ3Gal-NM or vehicle (DMSO/propylene glycol, v/v 1:1). Single-cell suspensions (2×10^5) were injected in the tail-veins of Es1(e) mice. After 3 weeks, the mice were sacrificed and the number of tumors present on the surface of the lungs was determined by visual inspection.
# LLC cells were treated in culture for 5 days with 4-deoxy AcGnG-NM, AcGnG-NM or vehicle (DMSO:propylene glycol) and then a single-cell suspension (2×10^5 cells) was injected in the tail vein of mice. After 3 weeks, the number of tumors present on the surface of the lungs was determined.
# [3] = test system: mixed oligosaccharides; test: Oligosaccharide priming, [6-3H]Gal incorporation; assay type: cell-based
# Description: (§1) A 4-deoxy modified acetylated disaccharide inhibits sLe^X expression in the absence of oligosaccharide priming.
# [4] = test system: U937 cells; test: sLe^X expression in U937 cells; assay type: cell-based
# Description: as §1
# [5] = test system: β4GalTI; test: Acceptor specificity and inhibitory action of GlcNAc derivatives (β4galactosyltransferase); assay type: biochemical; conditions: no reference given
# Description: The compounds in Table 1 were selected based on information about β4GalTI, also known as lactose synthase. The enzyme adds galactose to GlcNAc-terminated oligosaccharides on glycoproteins and glycolipids, and will produce lactose in the presence of the cofactor, α-lactalbumin (Berger et al., Biochimie., 85, 261-274, 2003). It is part of a multigene family of β4galactosyltransferases (Hennet, Cell Mol Life. Sci., 59, 1081-1095, 2002; Amado et al., Biochim. Biophys. Acta Gen. Subj., 1473, 35-53, 1999). β4GalTI has been studied kinetically, its substrate specificity has been well documented, and X-ray structures with and without UDP-Gal are available (Gastinel et al., EMBO J., 18, 3546-3557, 1999; Ramakrishnan et al., J. Mol. Biol., 310, 205-218, 2001; Ramakrishnan et al., J. Mol. Biol., 318, 491-502, 2002).
# β4GalTI will act on free GlcNAc, GlcNAc-terminated oligosaccharides and GlcNAc glycosides, including GlcNAcβ3Gal-R (Table 2). […] One possibility for the discrepancy may be that the large aromatic aglycone in our compound may facilitate binding to the enzyme. […]
# [6] = test system: Lewis carbohydrate antigens on cells; conditions: monosaccharide; cited from earlier work
# [7] = test system: sLe^X on LS180 cell surface; test: ELISA with CSLEX-1 mAb of cell-surface sLe^X; assay type: cell-based, human; conditions: LS180 cells
# [8] = test system: LS180 cells adhering to recombinant E- or P-selectin; test: Cell adhesion to immobilized selectins, control values given for E- and P-selectin together; assay type: cell-based, human
# Method: Cell adhesion to immobilized selectins. 96-well plates were coated overnight at 4° C. with recombinant E-selectin (4 μg/ml) or P-selectin (2 μg/ml) (R & D Systems) and blocked with 1% BSA/PBS. LS180 cells were grown for 5 days with various amounts of acetylated disaccharide, harvested, labeled with Calcein AM (5 μM, Molecular Probes) in DMEM/1% FBS, and allowed to settle at room temperature on selectin-coated wells (5×10^4 cells/well). Plates were then stirred at 75 rpm for 30 min (Orbit shaker, Lab-Line Instruments) followed by immersion upside-down in a vessel filled with Hank's buffered saline solution (HBSS, Sigma), which allowed non-adherent cells to fall under gravity. St John et al., J. Immunol Methods, 170: 159-166, 1994. The wells were then washed by aspiration using HBSS. LS180 cells were less adherent to P-selectin, so the immersion step was not necessary prior to washing. […] Fluorescence was measured using a 96-well fluorimeter (CytoFluor II), and the average of triplicate measurements was determined±standard error. Cell viability was judged to be >90% by Trypan blue exclusion at the end of each experiment.
# Adhesion to selectins is altered in disaccharide-treated tumor cells. Treatment of LS180 cells with AcGnG-NM was not toxic to the cells up to 100 μM based on growth curves and exclusion of Trypan blue. […]
# [9] = test system: sialyl Lewis X in HL-60, LS180, murine Lewis lung carcinoma, B16 murine melanoma cells; test: Inhibition of sialyl Lewis X formation in cultured cells; assay type: cell-based
# Description: The disaccharides can be acylated with, e.g., acetyl, butyryl or benzoyl groups to reduce their hydrophilicity and make them permeable to cell membranes. […] The various disaccharides described above and their acylated or aryl derivatives are logical extensions of the present invention. In addition, analogs of the above compounds in which critical hydroxyl groups are missing or alkylated would bind to glycosyltransfersase and inhibit their activity.
# [10] = aromatic aglycones, read-out: Ki
compound,measurement,setting,value
CC(=O)NC1C(Oc2ccc3ccccc3c2)OC(CO)C(O)C1O (centres unmarked) [GlcNAcβ-O-2-naphthol],Ki,[1]; [10],9.5 µM
COC[C@H]1O[C@@H](OC)[C@H](NC(C)=O)[C@@H](O)[C@@H]1O [6-O-methyl-GlcNAcβ-O-Me],Vmax,[1],1.1 nmol/min
4′-deoxy-GlcNAcβ3Gal-O-NM [4-deoxy AcGnG-NM],experimental metastasis (tumors on the surface of the lungs),[2],inhibited experimental metastasis
same,incorporation of [6-^3H]Gal into mixed oligosaccharides,[3],does not
same,sLe^X expression,[4],inhibit sLe^X expression
same,sLe^X expression,[4]; listed as 4-deoxy-GlcNAcβ3Gal-NM,inhibits formation of sLe^X
CO[C@@H]1O[C@H](C)[C@@H](O)[C@H](O)[C@H]1NC(C)=O [6-deoxy-GlcNAcβ-O-Me],Km,"[1]; acceptor, read-out: Km",500 µM
CC(=O)NC1C(OCc2ccccc2)OC(CO)C(N)C1O (centres unmarked) [4-NH2-GlcNAcβ-OBn],Km,"[1]; acceptor, unit not given",Inactive
same,Ki,[1]; read-out: Ki,850 µM
same,Vmax,[1]; unit not given,Inactive
CC(=O)N[C@H]1[C@H](O[C@H]2[C@@H](O)[C@@H](CO)O[C@@H](OCc3ccc4ccccc4c3)[C@@H]2O)O[C@H](CO)[C@@H](O)[C@@H]1O [GlcNAcβ3Galβ-O-2-NM],Km,[5],< 10 µM
CC(=O)N[C@H]1[C@@H](OCc2ccccc2)O[C@H](CO)[C@H](O)[C@@H]1O [GalNAcα-O-benzyl],concentration needed to achieve a similar level of inhibition,[6],1 to 5 mM
"Galβ1,3Galβ-O-naphthalenemethanol [AcGG-NM]",expression of sLe^X on the cell surface,[7],no effect
same,extent of adhesion normalized to cells not treated with disaccharide,"[8]; E- and P-selectin, disaccharide at 50 μM",0.95-1.1
same,adhesion to either selectin conjugate,[8]; LS180 cells,no effect
CC(=O)N[C@H]1[C@H](Oc2c(Br)ccc3ccccc23)O[C@H](CO)[C@@H](O)[C@@H]1O [GlcNAcβ-O-2-bromonaphthol],Ki,[1]; [10],7.6 µM
CO[C@@H]1O[C@H](CO)[C@@H](O)[C@H](OC)[C@H]1NC(C)=O [3-O-methyl-GlcNAcβ-O-Me],Km,"[1]; acceptor, read-out: Km",77000 µM
same,Vmax,[1],2.4 nmol/min
CO[C@@H]1O[C@H](CO)[C@H](O)[C@H](O[C@@H]2O[C@H](CO)[C@@H](O)[C@H](O)[C@H]2NC(C)=O)[C@H]1O [GlcNAcβ3Galβ-OMe],Km,"[1]; acceptor, read-out: Km",1100 µM
CC(=O)N[C@H]1[C@H](Oc2c(C)ccc3ccccc23)O[C@H](CO)[C@@H](O)[C@@H]1O [GlcNAcβ-O-2-methylnaphthol],Ki,[1]; [10],3.5 µM
COC1OC(CO)CC(O)C1NC(C)=O (centres unmarked) [4-deoxy-GlcNAcβ-O-Me],Km,"[1]; acceptor, unit not given",Inactive
same,inhibition of the enzyme (β4GalT1),[1],did not inhibit
same,Ki,[1]; result in words,No inhibition
same,Vmax,[1]; unit not given,Inactive
"Galβ1,4GlcNAcβ-O-naphthalenemethanol [AcGGn-NM]",formation of sialyl Lewis X,[9],inhibit the formation of sialyl Lewis X
COC1OC(CO)C(O)C(OC2OC(CS)C(O)C(O)C2NC(C)=O)C1O (centres unmarked) [6′-thio-GlcNAcβ3Galβ-OMe],Km,"[1]; acceptor, unit not given",Inactive
same,inhibition of the enzyme (β4GalT1),[1],weak inhibitor
same,Ki,[1]; read-out: Ki,1000 µM
same,Vmax,[1]; unit not given,Inactive
COC1OC(COC2OC(CO)CC(O)C2NC(C)=O)C(O)C(O)C1O (centres unmarked) [4′-deoxy-GlcNAcβ6Glcβ-OMe],Km,"[1]; acceptor, unit not given",Inactive
same,Ki,[1]; result in words,No inhibition
COC1OC(CO)C(O)C(OC2OC(CO)CC(O)C2NC(C)=O)C1O (centres unmarked) [4′-deoxy-GlcNAcβ3Galβ-OMe],Km,"[1]; acceptor, unit not given",Inactive
same,inhibition of the enzyme (β4GalT1),[1],did not inhibit
same,Ki,[1]; result in words,No inhibition
CO[C@@H]1O[C@H](CO)[C@@H](O)C[C@H]1NC(C)=O [3-deoxy-GlcNAcβ-OMe],Km,"[1]; acceptor, read-out: Km",4200 µM
COC1OC(CO)C(F)C(O)C1NC(C)=O (centres unmarked) [4-fluoro-GlcNAcβ-OMe],Km,"[1]; acceptor, unit not given",Inactive
same,Ki,[1]; result in words,No inhibition
same,Vmax,[1]; unit not given,Inactive
CO[C@@H]1O[C@H](CO[C@@H]2O[C@H](CS)[C@@H](O)[C@H](O)[C@H]2NC(C)=O)[C@@H](O)[C@H](O)[C@H]1O [6′-thio-GlcNAcβ6Glcβ-OMe],Km,"[1]; acceptor, read-out: Km",1200 µM
COC1OC(CO)C(S)C(O)C1NC(C)=O (centres unmarked) [4-thio-GlcNAcβ-OMe],Km,"[1]; acceptor, unit not given",Inactive
same,Ki,[1]; result in words,No inhibition
same,Vmax,[1]; unit not given,Inactive
"OC[C@@H]1C[C@H](O)[C@@H](O)C(O)O1 (some centres unmarked) [Compound 4-deoxy-Glc, 4-deoxy-Glc]",inhibition of β4GalT1,[1]; in the presence of lactalbumin,weak inhibitor
CC(=O)N[C@H]1C(O)O[C@H](CO)[C@@H](O)[C@@H]1O (some centres unmarked) [GlcNAc],Km,[1]; read-out: Km,1000 to 10000 µM
CO[C@@H]1O[C@H](CO)[C@@H](O)[C@H](O)[C@H]1NC(C)=O [GlcNAcβ-O-Me],Km,"[1]; acceptor, read-out: Km",1300 µM and 1800 µM and 1500 µM
COC1OC(CO)C(OC)C(O)C1NC(C)=O (centres unmarked) [4-O-methyl-GlcNAcβ-O-Me],Km,"[1]; acceptor, unit not given",Inactive
same,Ki,[1]; result in words,No inhibition
same,Vmax,[1]; unit not given,Inactive
CC(=O)NC1C(Oc2cccc3ccccc23)OC(CO)C(O)C1O (centres unmarked) [GlcNAcβ-O-1-naphthol],Ki,[1]; [10],22 µM
CO[C@@H]1O[C@H](CO)[C@H](O)[C@H](O[C@@H]2O[C@H](CO)[C@@H](O)[C@H](F)[C@H]2NC(C)=O)[C@H]1O [3′-F-GlcNAcβ3Galβ-OMe],Ki,[1]; read-out: Ki,2700 µM
